According to article PMC3155282 (ACS Medicinal Chemistry Letters, 2011):

Key:
[1] = test system: cytochrome P450s; conditions: cited from earlier work
[2] = test system: others of recombinant CYP1A2, 2B6, 2C8, 2C9, 2C19, 2D6 and 3A4; conditions: recombinant enzyme
[3] = target: T1, CYP3A4 (Homo sapiens, UniProt P08684); conditions: recombinant enzyme
[4] = target: CYP2D6 (Homo sapiens, UniProt P10635); conditions: recombinant enzyme
[5] = target: T1, CYP3A4; conditions: cited from earlier work
[6] = test system: CYP2D6 and 2J2; conditions: catalyzed by CYP2D6 and 2J2; cited from earlier work
[7] = target: T2, CYP2C8 (Homo sapiens, UniProt P10632); experiment: P450 isoform phenotyping assay, parent compound depletion, recombinant CYP2C8; type: in vitro ADME; conditions: recombinant CYP2C8, 1 µM compound
T2 sequence (P10632 1-490): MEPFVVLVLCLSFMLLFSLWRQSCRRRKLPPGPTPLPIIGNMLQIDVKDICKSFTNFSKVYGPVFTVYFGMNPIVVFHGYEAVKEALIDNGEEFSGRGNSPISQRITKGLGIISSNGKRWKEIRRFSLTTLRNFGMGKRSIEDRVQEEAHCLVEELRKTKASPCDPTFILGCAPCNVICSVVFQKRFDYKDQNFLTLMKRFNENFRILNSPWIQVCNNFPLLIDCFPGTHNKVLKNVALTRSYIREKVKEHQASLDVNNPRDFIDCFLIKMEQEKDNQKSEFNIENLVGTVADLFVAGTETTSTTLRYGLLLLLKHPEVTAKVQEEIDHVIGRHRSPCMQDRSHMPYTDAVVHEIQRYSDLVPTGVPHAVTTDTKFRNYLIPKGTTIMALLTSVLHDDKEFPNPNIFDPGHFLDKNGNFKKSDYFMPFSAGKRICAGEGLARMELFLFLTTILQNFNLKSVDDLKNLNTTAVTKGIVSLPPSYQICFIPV

Sequence of CYP2D6 (P10635 whole entry): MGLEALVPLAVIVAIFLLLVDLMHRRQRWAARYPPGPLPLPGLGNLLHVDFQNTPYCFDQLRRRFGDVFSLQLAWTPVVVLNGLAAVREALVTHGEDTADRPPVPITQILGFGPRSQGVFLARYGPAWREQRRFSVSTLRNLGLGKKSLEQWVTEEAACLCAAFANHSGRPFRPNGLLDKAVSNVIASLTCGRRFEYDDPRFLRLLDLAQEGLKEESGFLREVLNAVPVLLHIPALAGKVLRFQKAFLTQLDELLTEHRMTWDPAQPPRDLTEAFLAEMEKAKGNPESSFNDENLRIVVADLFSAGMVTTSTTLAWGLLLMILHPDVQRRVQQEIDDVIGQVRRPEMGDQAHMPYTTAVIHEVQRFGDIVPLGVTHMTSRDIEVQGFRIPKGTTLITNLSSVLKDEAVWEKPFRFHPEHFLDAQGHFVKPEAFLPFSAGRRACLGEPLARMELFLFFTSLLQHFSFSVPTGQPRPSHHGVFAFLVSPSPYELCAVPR
T1 sequence (P08684 whole entry): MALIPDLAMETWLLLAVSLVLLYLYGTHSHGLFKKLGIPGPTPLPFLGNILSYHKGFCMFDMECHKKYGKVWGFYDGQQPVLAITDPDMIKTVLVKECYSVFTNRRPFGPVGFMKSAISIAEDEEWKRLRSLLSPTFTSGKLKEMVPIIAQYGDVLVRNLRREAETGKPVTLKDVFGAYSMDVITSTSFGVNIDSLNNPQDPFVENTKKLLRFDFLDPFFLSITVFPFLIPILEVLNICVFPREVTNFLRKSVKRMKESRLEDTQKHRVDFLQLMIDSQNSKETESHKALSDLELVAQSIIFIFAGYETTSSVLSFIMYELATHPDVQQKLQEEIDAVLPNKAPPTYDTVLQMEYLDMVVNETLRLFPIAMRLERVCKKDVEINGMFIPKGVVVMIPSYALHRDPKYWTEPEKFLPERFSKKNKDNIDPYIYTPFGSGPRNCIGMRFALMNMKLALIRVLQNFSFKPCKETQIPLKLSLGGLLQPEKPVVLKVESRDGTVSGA

Compound | N-dealkylation (major or minor pathway) [1] | half-life (t1/2) of parent compound depletion from phenotyping assay, others [2] | half-life (t1/2) of parent compound depletion from phenotyping assay, 3A4 [3] | contribution of CYP2D6 to metabolism [4] | half-life (t1/2) of parent compound depletion from phenotyping assay, 2D6 [4] | conversion from astemizole to benzimidazole hydroxylated metabolite [5] [%] | conversion from astemizole to O-desmethylastemizole [6] [%] | half-life (t1/2) of parent compound depletion from phenotyping assay, 2C8 [7]
COc1cc(N)c(Cl)cc1C(=O)NC1CCN(Cc2ccccc2)CC1 [clebopride] | major | 3A4 (<5 m), others (>60 m) | 3A4 (<5 m), others (>60 m) |  |  |  |  | 
O=C(NC1CCN(CCc2c[nH]c3ccccc23)CC1)c1ccccc1 [indoramin] | minor | 2D6 (<5 m), 3A4 (16.0 m), others (>60 m) | 2D6 (<5 m), 3A4 (16.0 m), others (>60 m) | contributed significantly | 2D6 (<5 m), 3A4 (16.0 m), others (>60 m) |  |  | 
O=c1[nH]c2ccccc2n1C1CCN(CCCC(c2ccc(F)cc2)c2ccc(F)cc2)CC1 [pimozide] | major | 3A4 (2.7 m), 2D6 (3.2 m), others (>60 m) | 3A4 (2.7 m), 2D6 (3.2 m), others (>60 m) |  | 3A4 (2.7 m), 2D6 (3.2 m), others (>60 m) |  |  | 
CN1CCC(N(Cc2ccccc2)c2ccccc2)CC1 [bamipine] | major |  |  |  |  |  |  | 
COc1ccc(CCN2CCC(Nc3nc4ccccc4n3Cc3ccc(F)cc3)CC2)cc1 [astemizole] | minor | 3A4 (1.5 m), 2D6 (4.0 m), others (>60 m) | 3A4 (1.5 m), 2D6 (4.0 m), others (>60 m) |  | 3A4 (1.5 m), 2D6 (4.0 m), others (>60 m) | 25 | 67 | 
O=C(CCCN1CCC(n2c(=S)[nH]c3ccccc32)CC1)c1ccc(F)cc1 [timiperone] | major |  |  |  |  |  |  | 
COc1cc(N)c(Cl)cc1C(=O)NC1CCN(CCCOc2ccc(F)cc2)CC1OC (centres unmarked) [cisapride] | major | 3A4 (<5 m), others (>60 m) |  |  |  |  |  | 
CN(c1nc2ccccc2s1)C1CCN(CC(O)COc2ccc(F)cc2)CC1 (centres unmarked) [sabeluzole] | minor | 2D6 (1.5 m), 3A4 (<5.0 m), others (>60 m) | 2D6 (1.5 m), 3A4 (<5.0 m), others (>60 m) | contributed significantly | 2D6 (1.5 m), 3A4 (<5.0 m), others (>60 m) |  |  | 
O=C(CCCN1CCC(n2c(O)nc3ccccc32)CC1)c1ccc(F)cc1 [benperidol] | major | 3A4 (3.3 m), 2D6 (10.4 m), 2C8 (43.8 m), others (>60 m) | 3A4 (3.3 m), 2D6 (10.4 m), 2C8 (43.8 m), others (>60 m) |  | 3A4 (3.3 m), 2D6 (10.4 m), 2C8 (43.8 m), others (>60 m) |  |  | 3A4 (3.3 m), 2D6 (10.4 m), 2C8 (43.8 m), others (>60 m)
